Data taken from patent US20250002507A1, “7,8-DIHYDRO-5H-1,6-NAPHTHYRIDINE DERIVATIVES AS POSITIVE ALLOSTERIC MODULATORS OF THE MUSCARINIC ACETYLCHOLINE RECEPTOR M4 FOR TREATING NEUROLOGICAL AND PSYCHIATRIC DISORDERS” (Vanderbilt University, priority 2021, published 2025).

Target: T1, Human M4 (Homo sapiens, UniProt P08173)
T1 construct: expressed in transfected cells
T1 sequence (P08173 1-479): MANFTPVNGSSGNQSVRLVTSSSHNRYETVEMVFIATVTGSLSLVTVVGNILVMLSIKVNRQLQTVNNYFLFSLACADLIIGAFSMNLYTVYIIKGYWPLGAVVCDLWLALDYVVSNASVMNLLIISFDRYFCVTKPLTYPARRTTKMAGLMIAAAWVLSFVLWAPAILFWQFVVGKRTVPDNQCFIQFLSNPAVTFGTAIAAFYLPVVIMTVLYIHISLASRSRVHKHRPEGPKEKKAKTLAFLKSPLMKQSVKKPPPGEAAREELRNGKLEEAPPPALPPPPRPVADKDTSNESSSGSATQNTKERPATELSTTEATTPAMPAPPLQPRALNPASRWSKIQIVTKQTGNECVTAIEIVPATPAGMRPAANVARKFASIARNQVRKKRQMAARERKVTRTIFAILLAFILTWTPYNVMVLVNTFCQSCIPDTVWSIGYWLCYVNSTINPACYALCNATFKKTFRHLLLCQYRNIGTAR
Test: mAChR M4 cell-based functional assay (calcium flux, potentiation of EC20 acetylcholine response), hM4-Gqi5 CHO-K1 cells
Details: Table 4; for Emax at 30 µM: CHO-K1, Human M4, % ACh maximum at 30 μM, read-out: Emax (% ACh maximum at 30 μM); for EC50: potentiation of EC20 acetylcholine response, calcium flux, CHO-K1 cells, read-out: Human M4 EC50
Procedure, shortened: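 CHO-K1 cells stably expressing human M4 with chimeric Gqi5, loaded with Fluo-4 AM 50 min at 37 °C; calcium flux read by FDSS. 11-point 1:3 compound curves added, then EC20 acetylcholine at 144 s; potentiation of the EC20 response fitted by four-parameter logistic to give EC50 and Emax.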

| Emax at 30 µM [%] | EC50 [µM] | SMILES |
| --- | --- | --- |
| 111 | 0.153 | Cc1cc2nnc(C(F)(F)F)n2nc1N1CCc2ncc(N3CCOc4ncccc43)cc2C1 [Compound 324, 1-(6-(7-methyl-3-(trifluoromethyl)-[1,2,4]triazolo[4,3-b]pyridazin-6-yl)-5,6,7,8-tetrahydro-1,6-naphthyridin-3-yl)-2,3-dihydro-1H-pyrido[2,3-b][1,4]oxazine] |
| 116 | 0.05 | Cc1cc2nnc(C(F)(F)F)n2nc1N1CCc2ncc(N3CCCn4nccc43)cc2C1 [Compound 325, 3-(6,7-dihydropyrazolo[1,5-a]pyrimidin-4(5H)-yl)-6-(7-methyl-3-(trifluoromethyl)-[1,2,4]triazolo[4,3-b]pyridazin-6-yl)-5,6,7,8-tetrahydro-1,6-naphthyridine] |
| 62 | 2.08 | Cc1cc2nnc(C(F)(F)F)n2nc1N1CCc2ncc(N3CCOC(c4ccccn4)C3)cc2C1 (stereo not drawn) [Compound 326, 4-(6-(7-methyl-3-(trifluoromethyl)-[1,2,4]triazolo[4,3-b]pyridazin-6-yl)-5,6,7,8-tetrahydro-1,6-naphthyridin-3-yl)-2-(pyridin-2-yl)morpholine] |
| 68 | 1.31 | Cc1c(N2CCc3ncc(N4CCOC(c5ccccn5)C4)cc3C2)nn2c(C(F)(F)F)nnc2c1C (stereo not drawn) [Compound 327, 4-(6-(7,8-dimethyl-3-(trifluoromethyl)-[1,2,4]triazolo[4,3-b]pyridazin-6-yl)-5,6,7,8-tetrahydro-1,6-naphthyridin-3-yl)-2-(pyridin-2-yl)morpholine] |
| 76 | 0.623 | Cc1c(N2CCc3ncc(N4CCOC(c5cccnc5)C4)cc3C2)nn2c(C(F)(F)F)nnc2c1C (stereo not drawn) [Compound 328, 4-(6-(7,8-dimethyl-3-(trifluoromethyl)-[1,2,4]triazolo[4,3-b]pyridazin-6-yl)-5,6,7,8-tetrahydro-1,6-naphthyridin-3-yl)-2-(pyridin-3-yl)morpholine] |
| 80 | 1.49 | Cc1cc2nnc(C(F)(F)F)n2nc1N1CCc2ncc(N3CCOC(c4cccnc4)C3)cc2C1 (stereo not drawn) [Compound 329, 4-(6-(7-methyl-3-(trifluoromethyl)-[1,2,4]triazolo[4,3-b]pyridazin-6-yl)-5,6,7,8-tetrahydro-1,6-naphthyridin-3-yl)-2-(pyridin-3-yl)morpholine] |
| 83 | 2.15 | Cc1cc2nncn2nc1N1Cc2cc(N3CCOCC3)cnc2C(C)C1 (stereo not drawn) [Compound 330, 4-(8-methyl-6-(7-methyl-[1,2,4]triazolo[4,3-b]pyridazin-6-yl)-5,6,7,8-tetrahydro-1,6-naphthyridin-3-yl)morpholine] |
| 94 | 0.7 | Cc1c(N2Cc3cc(N4CCOCC4)cnc3C(C)C2)nn2cnnc2c1C (stereo not drawn) [Compound 331, 4-(6-(7,8-dimethyl-[1,2,4]triazolo[4,3-b]pyridazin-6-yl)-8-methyl-5,6,7,8-tetrahydro-1,6-naphthyridin-3-yl)morpholine] |
| 71 | 2.59 | Cc1cc2nncn2nc1N1CCc2ncc(N3CCN(C)C(=O)C3)cc2C1 [Compound 332, 1-methyl-4-(6-(7-methyl-[1,2,4]triazolo[4,3-b]pyridazin-6-yl)-5,6,7,8-tetrahydro-1,6-naphthyridin-3-yl)piperazin-2-one] |
| 52 | 1.34 | Cc1c(N2CCc3ncc(N4CCN(C)C(=O)C4)cc3C2)nn2cnnc2c1C [Compound 333, 4-(6-(7,8-dimethyl-[1,2,4]triazolo[4,3-b]pyridazin-6-yl)-5,6,7,8-tetrahydro-1,6-naphthyridin-3-yl)-1-methylpiperazin-2-one] |
| 74 | 0.234 | Cc1cc2nncn2nc1N1CCc2ncc(CC(F)(F)F)cc2C1 [Compound 334, 6-(7-methyl-[1,2,4]triazolo[4,3-b]pyridazin-6-yl)-3-(2,2,2-trifluoroethyl)-5,6,7,8-tetrahydro-1,6-naphthyridine] |
| 77 | 1.7 | Cc1cc2nncn2nc1N1CCc2ncc(C(C)(O)C(F)(F)F)cc2C1 (stereo not drawn) [Compound 335, 1,1,1-trifluoro-2-(6-(7-methyl-[1,2,4]triazolo[4,3-b]pyridazin-6-yl)-5,6,7,8-tetrahydro-1,6-naphthyridin-3-yl)propan-2-ol] |
| 72 | 0.359 | CCOC(=O)c1c(C)nc2cc(C)c(N3CCc4ncc(N5CCCn6nccc65)cc4C3)nn12 [Compound 336, ethyl 6-(3-(6,7-dihydropyrazolo[1,5-a]pyrimidin-4(5H)-yl)-7,8-dihydro-1,6-naphthyridin-6(5H)-yl)-2,7-dimethylimidazo[1,2-b]pyridazine-3-carboxylate] |
| 61 | 1.61 | CCOC(=O)c1c(C)nc2cc(C)c(N3CCc4ncc(C(F)(F)F)cc4C3)nn12 [Compound 337, ethyl 2,7-dimethyl-6-(3-(trifluoromethyl)-7,8-dihydro-1,6-naphthyridin-6(5H)-yl)imidazo[1,2-b]pyridazine-3-carboxylate] |
| 84 | 5.4 | FC(F)(F)c1cnc2c(c1)CN(c1nn3c(C(F)(F)F)nnc3c3ccccc13)CC2 [Compound 338, 3-(trifluoromethyl)-6-(3-(trifluoromethyl)-7,8-dihydro-1,6-naphthyridin-6(5H)-yl)-[1,2,4]triazolo[3,4-a]phthalazine] |
| 67 | 1.9 | CCOC(=O)c1c(C)nc2c(C)c(C)c(N3CCc4ncc(C(F)(F)F)cc4C3)nn12 [Compound 339, Ethyl 2,7,8-trimethyl-6-(3-(trifluoromethyl)-7,8-dihydro-1,6-naphthyridin-6(5H)-yl)imidazo[1,2-b]pyridazine-3-carboxylate] |
| 84 | 0.431 | Cc1cc2cncn2nc1N1CCc2ncc(C(F)(F)F)cc2C1 [Compound 340, 6-(3-methylimidazo[1,5-b]pyridazin-2-yl)-3-(trifluoromethyl)-5,6,7,8-tetrahydro-1,6-naphthyridine] |
| 63 | 0.521 | Cc1cc2cnc(C)n2nc1N1CCc2ncc(C(F)(F)F)cc2C1 [Compound 341, 6-(3,7-dimethylimidazo[1,5-b]pyridazin-2-yl)-3-(trifluoromethyl)-5,6,7,8-tetrahydro-1,6-naphthyridine] |
| 81 | 0.492 | Cc1cc2cncn2nc1N1CCc2ncc(-c3cn(C)nc3C)cc2C1 [Compound 342, 3-(1,3-dimethyl-1H-pyrazol-4-yl)-6-(3-methylimidazo[1,5-b]pyridazin-2-yl)-5,6,7,8-tetrahydro-1,6-naphthyridine] |
| 73 | 0.547 | c1cc2n(n1)CCCN2c1cnc2c(c1)CN(c1nn3cnnc3c3c1CCCC3)CC2 [Compound 344, 6-(3-(6,7-dihydropyrazolo[1,5-a]pyrimidin-4(5H)-yl)-7,8-dihydro-1,6-naphthyridin-6(5H)-yl)-7,8,9,10-tetrahydro-[1,2,4]triazolo[3,4-a]phthalazine] |
| 63 | 1.46 | FC(F)(F)c1cnc2c(c1)CN(c1nn3cnnc3c3c1CCCC3)CC2 [Compound 345, 6-(3-(trifluoromethyl)-7,8-dihydro-1,6-naphthyridin-6(5H)-yl)-7,8,9,10-tetrahydro-[1,2,4]triazolo[3,4-a]phthalazine] |
